US20230085945A1, “ORTHOGONAL SAFETY SWITCHES TO ELIMINATE GENETICALLY ENGINEERED CELLS” (The Board of Trustees of the Leland Stanford Junior …, priority 2020, published 2023)

Test system: NANOG^iCasp9-YFP;ACTB^HSV-TK-mPlum hPSCs transplanted subcutaneously
Assay: Teratoma formation after AP20 pre-treatment of dual-safeguard hPSCs
Assay type: in vivo, NOD-SCID Il2rg^−/− mice
Conditions: pre-treatment with 1 nM AP20 before transplantation
Procedure: FIG. 5: Implementation of the ACTB^TK-mPlum safety switch. A) NANOG^iCasp9-YFP;ACTB^TK-mPlum hESCs were treated with ganciclovir (or left untreated) for 24 hours, and subsequently ganciclovir was withdrawn and hESCs were cultured for 1 week in mTeSR1 to detect any surviving cells and to allow them to regrow. […] N.D.=not detected. B) NANOG^iCasp9-YFP;ACTB^TK-mPlum hESCs were differentiated into day 6 liver, sclerotome and neural progenitors and treated with ganciclovir at the indicated doses for the last 24 hours of differentiation. Cell survival was analyzed by counting at day 6 of differentiation. C) 10^6 NANOG^iCasp9-YFP; ACTB^TK-mPlum hESCs engineered to express CAG-AkaLuciferase were treated with control media or 1 nM AP20187 for 24 hours, and then subcutaneously transplanted into the right and left dorsal flanks of NOD-SCID Il2rg^−/− mice (10^6 cells per flank). […] Total flux (photons/sec) was measured for each animal and were averaged.
In vivo teratoma formation. […] Teratoma growth was monitored throughout the duration of the experiment via visual inspection and bioluminescent imaging.
Bioluminescent imaging. […] Subsequent image analysis was done in Aura with regions of interest (ROIs) drawn for each mouse to calculate Total Flux (photons/sec) in order to quantify teratoma growth over time.

CC[C@H](C(=O)N1CCCC[C@H]1C(=O)O[C@H](CCc1ccc(OC)c(OC)c1)c1cccc(OCC(=O)NCC(CNC(=O)COc2cccc([C@@H](CCc3ccc(OC)c(OC)c3)OC(=O)[C@@H]3CCCCN3C(=O)[C@@H](CC)c3cc(OC)c(OC)c(OC)c3)c2)CN(C)C)c1)c1cc(OC)c(OC)c(OC)c1 [AP20]
teratoma formation in vivo: prevented them from forming teratomas in vivo
